This passage reports GI50 and TGI results from PubChem BioAssay (NCI).

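Interpolation was linear, between the two tested concentrations surrounding the appropriate level; five concentrations were tested over 48 hours in 96-well plates. Abbreviation: GI50, concentration required for 50% inhibition of growth. TGI marks complete inhibition of growth.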 Where only a bound is given, the exact number is not on record here.

The first test relates to SK-MEL-28 melanoma. Kind of test: NCI tumour cell line growth inhibition, 48 h.
With `C=C(C)C(OC)C(O)CC1(C)CC(O)CC(C)(C2CCC3OC(C4(C)CCC(Br)C(C)(C)O4)CCC3(C)O2)O1` (centres undefined), the GI50 is 23.6 µM and the TGI was determined as 50 µM.

Turning to `NC(N)=NS(=O)(=O)c1ccc(Nc2c3ccccc3nc3c(C(=O)NCCO)cccc23)cc1`, the GI50 was 20.3 µM.

Regarding `COc1cccc(-c2cc(-c3cccc(NS(C)(=O)=O)c3)nc(N)c2C#N)c1O`, the GI50 is 0.571 µM and the TGI is greater than 100 µM.

As to `COc1ccc2c(c1)sc1nc(-c3ccccc3)c(-c3cccc4ccccc34)n12`, the GI50 is 0.417 µM and the TGI is greater than 100 µM.

As to `OCCN(CCO)c1ncnc2c1ncn2Cc1ccc(CCl)cc1`, the GI50 was 23.8 µM and the TGI came out at 63.8 µM.

For `Cc1ccc(NC(=O)Nc2ccc(-c3cccnc3)cc2N2CCC(CO)CC2)cc1`, the GI50 is 1.49 µM and the TGI amounted to 5.42 µM.

Regarding `Cc1cc(-c2nc(C(=O)Nc3cc4oc(N5CCOCC5)nc4nc3N3CC[C@@H](O)C3)co2)ccn1`, the GI50 is 56.2 µM and the TGI is greater than 100 µM.

Regarding `COc1cc(/C=N\NC(=O)CN2CCN(c3cc4c(cc3F)c(=O)c(C(=O)N/N=C/c3cc(OC)c(OC)c(OC)c3)cn4C3CC3)CC2)cc(OC)c1OC`, the GI50 is 0.359 µM and the TGI is greater than 19.8 µM.

For `C=CC(=O)Nc1cc(Nc2ncc(C(=O)OC(C)C)c(-c3cn(C)c4ccccc34)n2)c(OC)cc1N(C)CCN(C)C`, the GI50 was 2.43 µM and the TGI was 6.55 µM.

Regarding `COc1cnc2c(c1)C(=O)c1c-2n(CCCN2CCOCC2)c(=O)c2cc(F)ccc12`, the GI50 is 1.2 µM and the TGI was greater than 100 µM.

Consider `Cc1nc2sccn2c1-c1csc(Nc2ccccc2Cl)n1`, for which the GI50 is 6.24 µM and the TGI was greater than 100 µM.

Turning to `CN(C)c1ccc(/C=C\C2=[N+](C)c3ccccc3C2(C)C)cc1`, the GI50 is 0.51 µM and the TGI was 21.5 µM.

`Nc1nc(-n2c(-c3ccccc3)nc3c(Br)cc(Br)cc3c2=O)nnc1-c1cccc(Cl)c1Cl`: the GI50 was greater than 100 µM and the TGI is greater than 100 µM.

Take `Cn1cc(C2=C(c3c4n(c5ccccc35)CCCCC4)C(=O)NC2=O)c2ccccc21`: the GI50 was 12.6 µM and the TGI is greater than 25 µM.

For `NS(=O)(=O)OC[C@@H]1C[C@@H](n2ccc3c(NC4CCc5ccccc54)ncnc32)C[C@@H]1O` (some centres undefined), the GI50 is 3.94 µM and the TGI was greater than 100 µM.

In the case of `Nc1ccccc1C#C/C=C\C#Cc1ccccc1OC(F)(F)F`, the GI50 was 7.55 µM and the TGI came out at 36.8 µM.

As for `CN1CCCCC1CCN1c2ccccc2Sc2ccc(Cl)cc21` (centres undefined), the GI50 is 2.23 µM and the TGI was found to be 5.9 µM.

Regarding `FC(F)(F)c1cccc(Nc2nc(-c3ccccc3)nc3ncccc23)c1`, the GI50 was 7.93 µM and the TGI amounted to 74.4 µM.

Another test concerns MOLT-4 leukemia. Kind of test: NCI tumour cell line growth inhibition, 48 h.
Take `C=C(C)C(OC)C(O)CC1(C)CC(O)CC(C)(C2CCC3OC(C4(C)CCC(Br)C(C)(C)O4)CCC3(C)O2)O1` (centres undefined): the GI50 is 13.5 µM and the TGI is 29.4 µM.

Consider `NC(N)=NS(=O)(=O)c1ccc(Nc2c3ccccc3nc3c(C(=O)NCCO)cccc23)cc1`, for which the GI50 is 4.78 µM.

Consider `COc1cccc(-c2cc(-c3cccc(NS(C)(=O)=O)c3)nc(N)c2C#N)c1O`, for which the GI50 is 0.349 µM and the TGI is greater than 100 µM.

Take `COc1ccc2c(c1)sc1nc(-c3ccccc3)c(-c3cccc4ccccc34)n12`: the GI50 is 0.774 µM and the TGI is greater than 100 µM.

On to `OCCN(CCO)c1ncnc2c1ncn2Cc1ccc(CCl)cc1`, for which the GI50 was 8.54 µM and the TGI turned out to be 52.4 µM.

For `Cc1ccc(NC(=O)Nc2ccc(-c3cccnc3)cc2N2CCC(CO)CC2)cc1`, the GI50 is 3.02 µM and the TGI is greater than 100 µM.

Turning to `Cc1cc(-c2nc(C(=O)Nc3cc4oc(N5CCOCC5)nc4nc3N3CC[C@@H](O)C3)co2)ccn1`, the GI50 is 38.3 µM and the TGI is greater than 100 µM.

Consider `COc1cc(/C=N\NC(=O)CN2CCN(c3cc4c(cc3F)c(=O)c(C(=O)N/N=C/c3cc(OC)c(OC)c(OC)c3)cn4C3CC3)CC2)cc(OC)c1OC`, for which the GI50 is 0.331 µM and the TGI is greater than 100 µM.

As for `C=CC(=O)Nc1cc(Nc2ncc(C(=O)OC(C)C)c(-c3cn(C)c4ccccc34)n2)c(OC)cc1N(C)CCN(C)C`, the GI50 was 2.9 µM and the TGI turned out to be 11.4 µM.

As for `COc1cnc2c(c1)C(=O)c1c-2n(CCCN2CCOCC2)c(=O)c2cc(F)ccc12`, the GI50 was 0.106 µM and the TGI came out at 0.637 µM.

Take `Cc1nc2sccn2c1-c1csc(Nc2ccccc2Cl)n1`: the GI50 was 3.28 µM and the TGI was found to be 17 µM.

As for `CN(C)c1ccc(/C=C\C2=[N+](C)c3ccccc3C2(C)C)cc1`, the TGI is greater than 100 µM.

Regarding `Nc1nc(-n2c(-c3ccccc3)nc3c(Br)cc(Br)cc3c2=O)nnc1-c1cccc(Cl)c1Cl`, the GI50 is 25.4 µM and the TGI is greater than 100 µM.

For `Cn1cc(C2=C(c3c4n(c5ccccc35)CCCCC4)C(=O)NC2=O)c2ccccc21`, the GI50 is 7.04 µM and the TGI is greater than 25 µM.

Consider `NS(=O)(=O)OC[C@@H]1C[C@@H](n2ccc3c(NC4CCc5ccccc54)ncnc32)C[C@@H]1O` (some centres undefined), for which the GI50 was 0.37 µM and the TGI amounted to 11.1 µM.

`Nc1ccccc1C#C/C=C\C#Cc1ccccc1OC(F)(F)F`: the GI50 is 2.91 µM and the TGI was 24.1 µM.

As for `CN1CCCCC1CCN1c2ccccc2Sc2ccc(Cl)cc21` (centres undefined), the GI50 was 3.2 µM and the TGI was determined as 10.2 µM.

Consider `FC(F)(F)c1cccc(Nc2nc(-c3ccccc3)nc3ncccc23)c1`, for which the GI50 is 3.11 µM and the TGI came to 9.04 µM.

The subject of another test is SF-295 CNS. Kind of test: NCI tumour cell line growth inhibition, 48 h.
Take `C=C(C)C(OC)C(O)CC1(C)CC(O)CC(C)(C2CCC3OC(C4(C)CCC(Br)C(C)(C)O4)CCC3(C)O2)O1` (centres undefined): the GI50 was 22.7 µM and the TGI stood at 62.2 µM.

`NC(N)=NS(=O)(=O)c1ccc(Nc2c3ccccc3nc3c(C(=O)NCCO)cccc23)cc1`: the GI50 is 20.5 µM and the TGI was 60.7 µM.

Regarding `COc1cccc(-c2cc(-c3cccc(NS(C)(=O)=O)c3)nc(N)c2C#N)c1O`, the GI50 is 0.0431 µM and the TGI is 0.752 µM.

Consider `COc1ccc2c(c1)sc1nc(-c3ccccc3)c(-c3cccc4ccccc34)n12`, for which the GI50 is 0.415 µM.

As to `OCCN(CCO)c1ncnc2c1ncn2Cc1ccc(CCl)cc1`, the GI50 is 17 µM and the TGI amounted to 33.6 µM.

Regarding `Cc1ccc(NC(=O)Nc2ccc(-c3cccnc3)cc2N2CCC(CO)CC2)cc1`, the GI50 was 2.53 µM and the TGI is greater than 100 µM.

Take `Cc1cc(-c2nc(C(=O)Nc3cc4oc(N5CCOCC5)nc4nc3N3CC[C@@H](O)C3)co2)ccn1`: the GI50 is 87.5 µM and the TGI was greater than 100 µM.

Take `COc1cc(/C=N\NC(=O)CN2CCN(c3cc4c(cc3F)c(=O)c(C(=O)N/N=C/c3cc(OC)c(OC)c(OC)c3)cn4C3CC3)CC2)cc(OC)c1OC`: the GI50 is 0.685 µM and the TGI amounted to 5.58 µM.

Take `C=CC(=O)Nc1cc(Nc2ncc(C(=O)OC(C)C)c(-c3cn(C)c4ccccc34)n2)c(OC)cc1N(C)CCN(C)C`: the GI50 is 5.11 µM and the TGI was found to be 10.6 µM.

As for `COc1cnc2c(c1)C(=O)c1c-2n(CCCN2CCOCC2)c(=O)c2cc(F)ccc12`, the GI50 was 0.141 µM and the TGI came out at 0.864 µM.

With `Cc1nc2sccn2c1-c1csc(Nc2ccccc2Cl)n1`, the GI50 is 1.55 µM and the TGI was 5.98 µM.

As to `CN(C)c1ccc(/C=C\C2=[N+](C)c3ccccc3C2(C)C)cc1`, the GI50 was 0.994 µM and the TGI was greater than 23.6 µM.

For the compound `Nc1nc(-n2c(-c3ccccc3)nc3c(Br)cc(Br)cc3c2=O)nnc1-c1cccc(Cl)c1Cl`, the GI50 was 11.2 µM and the TGI was determined as 34.8 µM.

For the compound `Cn1cc(C2=C(c3c4n(c5ccccc35)CCCCC4)C(=O)NC2=O)c2ccccc21`, the GI50 is 1.31 µM and the TGI was greater than 14.7 µM.

For the compound `NS(=O)(=O)OC[C@@H]1C[C@@H](n2ccc3c(NC4CCc5ccccc54)ncnc32)C[C@@H]1O` (some centres undefined), the GI50 is 0.337 µM and the TGI was 4.52 µM.

Regarding `Nc1ccccc1C#C/C=C\C#Cc1ccccc1OC(F)(F)F`, the GI50 was 3.03 µM and the TGI amounted to 11.4 µM.

Take `CN1CCCCC1CCN1c2ccccc2Sc2ccc(Cl)cc21` (centres undefined): the GI50 was 3.32 µM and the TGI was 13.5 µM.

On to `FC(F)(F)c1cccc(Nc2nc(-c3ccccc3)nc3ncccc23)c1`, for which the GI50 was 2.61 µM and the TGI was found to be 8.34 µM.

Another test concerns ACHN renal. Kind of test: NCI tumour cell line growth inhibition, 48 h.
Turning to `C=C(C)C(OC)C(O)CC1(C)CC(O)CC(C)(C2CCC3OC(C4(C)CCC(Br)C(C)(C)O4)CCC3(C)O2)O1` (centres undefined), the GI50 is 26.4 µM and the TGI was greater than 57.4 µM.

In the case of `NC(N)=NS(=O)(=O)c1ccc(Nc2c3ccccc3nc3c(C(=O)NCCO)cccc23)cc1`, the GI50 is 20 µM.

`COc1cccc(-c2cc(-c3cccc(NS(C)(=O)=O)c3)nc(N)c2C#N)c1O`: the GI50 was 0.846 µM and the TGI was greater than 100 µM.

On to `COc1ccc2c(c1)sc1nc(-c3ccccc3)c(-c3cccc4ccccc34)n12`, for which the GI50 is 0.76 µM and the TGI was greater than 100 µM.

Regarding `OCCN(CCO)c1ncnc2c1ncn2Cc1ccc(CCl)cc1`, the GI50 is 14.9 µM and the TGI came out at 28.5 µM.

Consider `Cc1ccc(NC(=O)Nc2ccc(-c3cccnc3)cc2N2CCC(CO)CC2)cc1`, for which the GI50 was 6.68 µM and the TGI was greater than 100 µM.

As for `Cc1cc(-c2nc(C(=O)Nc3cc4oc(N5CCOCC5)nc4nc3N3CC[C@@H](O)C3)co2)ccn1`, the GI50 was 17.9 µM and the TGI was 93.7 µM.

As to `COc1cc(/C=N\NC(=O)CN2CCN(c3cc4c(cc3F)c(=O)c(C(=O)N/N=C/c3cc(OC)c(OC)c(OC)c3)cn4C3CC3)CC2)cc(OC)c1OC`, the GI50 was greater than 100 µM and the TGI is greater than 100 µM.

For `C=CC(=O)Nc1cc(Nc2ncc(C(=O)OC(C)C)c(-c3cn(C)c4ccccc34)n2)c(OC)cc1N(C)CCN(C)C`, the GI50 was 0.0218 µM and the TGI stood at 12.1 µM.

For `COc1cnc2c(c1)C(=O)c1c-2n(CCCN2CCOCC2)c(=O)c2cc(F)ccc12`, the GI50 is 0.177 µM and the TGI was 0.6 µM.

`Cc1nc2sccn2c1-c1csc(Nc2ccccc2Cl)n1`: the GI50 is 4.52 µM and the TGI is 62.3 µM.

`CN(C)c1ccc(/C=C\C2=[N+](C)c3ccccc3C2(C)C)cc1`: the GI50 is 1.75 µM and the TGI is greater than 36.7 µM.

Turning to `Nc1nc(-n2c(-c3ccccc3)nc3c(Br)cc(Br)cc3c2=O)nnc1-c1cccc(Cl)c1Cl`, the GI50 is 12.2 µM and the TGI came out at 40.2 µM.

For `Cn1cc(C2=C(c3c4n(c5ccccc35)CCCCC4)C(=O)NC2=O)c2ccccc21`, the GI50 was 6.05 µM and the TGI was greater than 25 µM.

Consider `NS(=O)(=O)OC[C@@H]1C[C@@H](n2ccc3c(NC4CCc5ccccc54)ncnc32)C[C@@H]1O` (some centres undefined), for which the GI50 is 0.332 µM and the TGI amounted to 1.8 µM.

For the compound `Nc1ccccc1C#C/C=C\C#Cc1ccccc1OC(F)(F)F`, the GI50 was 9.15 µM and the TGI was determined as 50.4 µM.

For the compound `CN1CCCCC1CCN1c2ccccc2Sc2ccc(Cl)cc21` (centres undefined), the GI50 is 3.3 µM and the TGI is 12.9 µM.

As to `FC(F)(F)c1cccc(Nc2nc(-c3ccccc3)nc3ncccc23)c1`, the GI50 was 3.3 µM and the TGI came to 11.4 µM.
